Measured values from patent publication US11197863B2, “Inhibitors of polo-like kinase 4 (PLK4) for treating pediatric embryonal tumors” (ANN AND ROBERT H. LURIE CHILDREN'S HOSPITAL OF CHICAGO, priority 2017, dated 2021).

How the values were obtained:
[1] = tested on: AURKA or other PLK family members; conditions: cited from earlier work
breast cancer cells = conditions: Sampson et al.; cited from earlier work
MON cells [2] = assay: Invasion and migration assays (Transwell); type: cell-based, human; conditions: 100 nM, 24 hr
Experimental: Both migration and invasion were assessed using a 24-well Transwell chamber system (Corning, USA).[35] MON cells were plated at 20,000 per well for cell migration and at 50,000 per well coated with matrigel (200 μg/ml, 3 hr of solidification) for cell invasion. HFF-SCC058 cells were used as negative controls. […] All experiments were performed in triplicates.

normal breast cells = conditions: Sampson et al.; cited from earlier work
DAOY MB cells = assay: Confluency assay (IncuCyte ZOOM); type: cell-based, human; conditions: increasing concentrations, 48 hour period, p-value=0.029
Experimental: For further evaluation of the effect of the PLK4 inhibitor over tumor cell proliferation, confluency was measured over a 48 hour period. MON, BT-12, G401 and DAOY cells were plated in 96-well plates with a density of 6×10^4 per well. […] Confluency was monitored for 48 hours by taking phase contrast images every 2 hours and measured using an IncuCyte ZOOM system (Essen BioScience, USA). Experiments were performed in triplicates.

[3] = tested on: G401, BT-12, BT-16, DAOY and D283 cell lines; assay: Immunofluorescence for gamma-tubulin (centriole number); type: cell-based, human
Experimental: (§1) The cells were then blocked in blocking buffer (5% BSA (Jackson Immuno Research Laboratories Inc., USA) in PBST) for 1 hour at RT. The primary antibody ([…] 1:500, Sigma, USA) diluted in 1% BSA in PBST was then added and incubated at 4° C. overnight. Then, the cells were washed with 1×PBS thrice. Secondary antibody (Anti-Rabbit IgG (H+L) F (ab′) 2, 1:500, Sigma, USA) diluted in 1% BSA in PBST was added and incubated at RT for 2 hours. Three time washes with IX PBS were performed. Then, 1 mL of DAPI (Thermo Fisher Scientific, USA) in PBS (0.5 μl of DAPI in 10 ml PBS) was added to the cells and incubated for 10 min at RT. Finally, 3 time washes with 1×PBS were performed and slides were mounted using Mounting Medium (Thermo Fisher Scientific, USA).

MON rhabdoid cells = assay: as above; type: cell-based, human; conditions: 48 hours
Experimental: as §1

[4] = tested on: MON, G401, BT-12, and BT-16 cells; assay: Clonogenic assay, rhabdoid tumor cell lines; type: cell-based, human; conditions: 50-200 nM; analyzed 14 days after treatment
Experimental: For each cell line, 200 cells were seeded into six-well plates, incubated for 14 days, fixed with formalin, stained with Cresyl violet (ACROS Organics, USA), and the number of colonies counted using Image J software (www.imagej.nih.gov).
To evaluate the effect of the PLK4 mutation over cell survival, MON-PLK4-mutated cells were compared with MON-Cas9. […] Controls were treated with 0.1% DMSO. All experiments were performed in triplicates.

[5] = tested on: PLK4 mRNA in MON rhabdoid cells; assay: qPCR for PLK4 expression; type: cell-based, human; conditions: 10, 50, 100 and 500 nM for 24, 48 and 72 hours vs 0.1% DMSO
Experimental: The expression of PLK4 (Hs00179514_m1) in each cell line was verified by TaqMan GE assays (Thermo Fisher Scientific, USA) using the housekeeping gene GAPDH (Hs02758991_g1) as reference. Total RNA (2 μg) was used to make cDNA using the Applied Biosystems High Capacity RNA-to-cDNA kit (Thermo Fisher Scientific). Reactions were performed in triplicate with adequate positive and negative controls. The normalized expression levels were calculated by […] method using the housekeeping gene and a pool of all samples as calibrator.

MON cells [6] = assay: Time-lapse assay, nuclear area and volume; type: cell-based, human; conditions: 100 nM, 48 hours, p-value<0.001
Experimental: Cells were plated in 35 mm glass bottom dishes (Cat #150682, Thermo Fisher Scientific, USA) in normal growth medium and allowed to grow overnight. After the treatment medium was added, imaging began immediately. Brightfield images (20×) were taken every 6 minutes at 10 predetermine fields for 48 hours. Images were processed in ZEN 2.3 software (Zeiss, USA).

AURKC = AURKC (Homo sapiens, UniProt Q9UQB9); assay: Kinase activity screening (SelectScreen Kinase Profiling); type: biochemical; conditions: read-out: kinase activity inhibited
Sequence of AURKC (Q9UQB9 whole entry): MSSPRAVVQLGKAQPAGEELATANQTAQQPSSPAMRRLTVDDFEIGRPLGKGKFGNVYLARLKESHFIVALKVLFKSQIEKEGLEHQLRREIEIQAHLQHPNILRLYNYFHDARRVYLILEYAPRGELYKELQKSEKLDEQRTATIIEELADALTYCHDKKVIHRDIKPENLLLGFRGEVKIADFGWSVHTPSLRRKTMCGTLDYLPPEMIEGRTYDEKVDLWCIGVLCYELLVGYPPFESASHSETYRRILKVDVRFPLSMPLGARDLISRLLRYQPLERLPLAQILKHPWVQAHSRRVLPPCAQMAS
From the text: (§2) These assays utilized various formats appropriate to the kinase, its substrate and its activity. Formats included the Z-LYTE™ Kinase Assay that determines the differential sensitivity of phosphorylated and non-phosphorylated peptide substrates to proteolytic cleavage using a FRET-based readout, the Adapta™ Universal Kinase Assay that employs a homogeneous, fluorescence-based immunoassay for the detection of ADP produced by kinases and the LanthaScreen™ Eu Kinase Binding Assay that utilizes an Alexa Fluor™ conjugated “tracer” and an Eu-labeled anti-tag antibody to measure binding of a compound to the kinase target [62].

TEK = TEK (Homo sapiens, UniProt Q02763); assay: as above; type: biochemical; conditions: 10-point titration
Sequence of TEK (Q02763 23-1124): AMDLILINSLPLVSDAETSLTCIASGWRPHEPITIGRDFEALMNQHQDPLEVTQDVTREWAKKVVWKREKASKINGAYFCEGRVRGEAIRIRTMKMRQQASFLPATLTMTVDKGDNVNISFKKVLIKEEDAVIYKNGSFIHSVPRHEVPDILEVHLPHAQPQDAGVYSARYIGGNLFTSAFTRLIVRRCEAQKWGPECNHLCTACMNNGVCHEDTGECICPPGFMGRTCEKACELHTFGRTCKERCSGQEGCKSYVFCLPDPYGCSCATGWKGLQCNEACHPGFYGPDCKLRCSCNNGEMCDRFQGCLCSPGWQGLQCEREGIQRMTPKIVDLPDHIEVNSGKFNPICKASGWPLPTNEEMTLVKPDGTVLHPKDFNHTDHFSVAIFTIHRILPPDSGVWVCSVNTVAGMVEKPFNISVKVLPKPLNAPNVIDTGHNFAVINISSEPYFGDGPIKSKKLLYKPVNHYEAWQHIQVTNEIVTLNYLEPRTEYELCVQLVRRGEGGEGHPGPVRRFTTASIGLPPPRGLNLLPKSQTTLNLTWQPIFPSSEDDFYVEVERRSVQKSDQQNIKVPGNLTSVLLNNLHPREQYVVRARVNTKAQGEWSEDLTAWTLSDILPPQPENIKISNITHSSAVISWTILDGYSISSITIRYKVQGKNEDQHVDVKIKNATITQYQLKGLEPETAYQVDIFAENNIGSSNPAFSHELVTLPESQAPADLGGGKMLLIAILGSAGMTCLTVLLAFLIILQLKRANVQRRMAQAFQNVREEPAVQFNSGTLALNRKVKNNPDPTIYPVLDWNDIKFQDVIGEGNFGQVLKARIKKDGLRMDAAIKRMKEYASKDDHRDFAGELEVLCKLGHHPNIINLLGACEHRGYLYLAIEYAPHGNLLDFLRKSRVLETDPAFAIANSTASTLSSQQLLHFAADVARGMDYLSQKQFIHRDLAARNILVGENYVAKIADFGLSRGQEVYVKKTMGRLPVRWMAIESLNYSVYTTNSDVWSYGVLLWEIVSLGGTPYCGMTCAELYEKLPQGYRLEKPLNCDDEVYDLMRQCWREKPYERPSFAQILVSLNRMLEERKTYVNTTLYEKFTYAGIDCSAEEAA
From the text: as §2

RT and MB cell lines = assay: Clonogenic recovery assay; type: cell-based, human; conditions: 100 nM for 6 days, then 12 days drug-free
Experimental: For each cell line, 200 cells were seeded into 6-well tissue culture plates. […] On the 7th day, cell were washed with IX PBS twice and then incubated with 0.1% DMSO for an additional 12 days. […] The number of colonies was counted. All experiments were performed in triplicates.

[7] = tested on: MON, G401, BT-12 and BT-16 cells; assay: Apoptosis by flow cytometry (Annexin V / PI); type: cell-based, human; conditions: 100 nM, 48 hours vs 0.1% DMSO
Experimental: Cells were treated with various concentrations of […] and 0.1% DMSO (control) for evaluation of the impact of treatment on induction of apoptosis. Live cells were stained with Annexin V as an indicator of early apoptosis and Propidium Iodide (PI—Thermo Fisher Scientific, USA) for detection of late apoptosis and necrosis, according to manufacturer's instructions (Thermo Fisher Scientific, USA). Flow cytometric analysis was performed on a BD Fortessa instrument (BD Biosciences, USA) within an hour of staining. Data was analyzed using Modfit LT from Verity Software House. All experiments were performed in triplicates.

Structure (SMILES): COc1ccc2c(c1)[C@]1(C[C@H]1c1ccc3c(/C=C/c4ccc(CN5C[C@@H](C)O[C@@H](C)C5)cc4)n[nH]c3c1)C(=O)N2 [CFI-400945]
- inhibition of AURKA or other PLK family members [1]: no significant inhibition
- effect on breast cancer cells (breast cancer cells): cell death
- invasion and migration (MON cells [2]): significant reduction
- effect on normal breast cells (normal breast cells): unaffected
- delay in reaching confluency (FC) (DAOY MB cells): 1.70
- centriole number ([3]; 100 nM): increase in centriole's number
- centriole number ([3]; 500 nM): significant decrease
- centriole number (MON rhabdoid cells; 100 nM): slight increase in centrioles' number
- centriole number (MON rhabdoid cells; 500 nM): significant depletion of centrioles
- colonies (clonogenic assay) [4]: complete absence of colonies
- PLK4 expression (qPCR) [5]: time dependent decrease in PLK4 expression
- nuclear area (FC) (MON cells [6]): 2.79
- nuclear volume (FC) (MON cells [6]): 4.69
- inhibition at 0.5 µM (AURKC): 84%
- IC50 (TEK): 109 nM
- ability to generate colonies after drug removal (RT and MB cell lines): lost their ability to generate colonies
- cells undergoing cell death (apoptosis) [7]: significantly higher percentage of cells undergoing cell death
